Experimental data: US11466025B2, “Thienopyridine derivatives containing unsaturated aliphatic olefinic bond, preparation method and use thereof” (Tianjin Institute of Pharmaceutical Research Co., Ltd., priority 2017, dated 2022)
Where two headings read alike, the source gives them in different places.

Columns and labels:
[1] = system: arteriovenous bypass thrombosis in rats; assay: Test of effect of compounds on arteriovenous bypass thrombosis in rats; format: in vivo, SD rats; parameters: Dry weight of thrombus (%): unit not given here; settings: for ED50: Rattus norvegicus, po; for Inhibition rate (%): dry weight of thrombus; for Dry weight of thrombus (%): loop opened 2.5 h after administration, 15 min
Description: Test of Effect of Compounds on Arteriovenous Bypass Thrombosis in Rats
Male SD rats were randomly divided into solvent control group, positive drug control group and test compound group. The solvent control group was administered a corresponding volume of the solvent. […] Rats were anesthetized with 4% chloral hydrate (0.32 g/kg), and fixed on the operating table at the supine position. The right common carotid artery and the left external jugular vein were separated, and was each inserted with a Teflon tube filled with normal saline solution containing heparin (50 U/mL), which were connected through another Teflon tube. A 6 cm long cotton thread was placed at the joints of the two tubes. After 2.5 h of administration, the arteriovenous loop was opened in each group and circulated for 15 min. The blood flow was interrupted, and the cotton thread wrapped with the thrombus was quickly removed and weighed. The weight of the cotton thread was subtracted to obtain the wet weight of the thrombus, and then it was baked in the oven to constant weight and weighed. The weight of the cotton thread was subtracted to obtain the dry weight of the thrombus.

beagle dogs = assay: Safety evaluation in multiple dosing (14 days); format: in vivo; settings: for Drug-related toxicity (appearance, mental activity, appetite, hematological, blood biochemical, ECG): continuous intragastrical administration for 14 days; for ECG examinations, hematological tests and serum biochemical tests: day 7 and 14
Description: Safety Evaluation of Compounds I-1 and I-2 in Multiple Dosing:
The test consisted of a physiological control group, a solvent control group, and two administration groups, with 4 animals in each group, half of which were male and the other half of which were female. Two dose groups, 100 mg/kg group and 300 mg/kg group, were set for the test compounds, to which the test compounds at doses of 100 mg/kg and 300 mg/kg were intragastrically administered respectively over 14 days. The solvent control group was administered with an equal volume of the blank solvent. Animals were daily observed for various conditions during the test. ECG examinations were performed before administration, and 7 and 14 days after administration. Hematological and blood biochemical tests were performed before administration and 7 and […] after administration.

[2] = system: bleeding time of amputated tail in rats; assay: Test of hemorrhagic side effects: bleeding time of amputated tail in rats; format: in vivo, SD rats; settings: intragastric, tail cut 1 h after administration, linear equation fitted
Description: Test of Hemorrhagic Side Effects:
1 h after administration, the rats were anesthetized by intraperitoneal injection of 20% urethane (1 g/kg), and the tail was cut off 5 mm from the tip of the tail, which was then placed in a test tube containing 5 ml normal saline at 37° C. The time from tail cut to cease of bleeding was recorded as the bleeding time. The increasing rate of bleeding time in each dose group was calculated, with the bleeding time of the rats in the control group being 100%.

[3] = Light-avoidance stability test after being packaged with aluminum foil (HPLC); format: physicochemical
Description: The stability of the compound is investigated under the conditions of high temperature, high humidity and light. The testing conditions for high performance liquid chromatography (HPLC) are as follows: Samples relating to Compound I-2 were tested using Method 2 and other samples were tested using Method 1. The test results of the influence factors are shown in Table 14, and the test results of the light-avoidance stability test are shown in Table 15.

[4] = Stability of crystalline form A of I-1 (X-ray powder diffraction after high temperature, high humidity, light); format: physicochemical
[5] = intragastric 100 mg/kg over 14 days
[6] = intragastric 300 mg/kg over 14 days
[7] = 5 days, Light (aluminum foil) 4500 ± 500 LX
[8] = 10 days, Light (aluminum foil) 4500 ± 500 LX
[9] = 30 days, Light (aluminum foil) 4500 ± 500 LX

| Structure (SMILES) | Inhibition rate (%) ([1]; rats, intragastric 1 mg/kg) | Inhibition rate (%) ([1]; rats, intragastric 3 mg/kg) | Inhibition rate (%) ([1]; rats, intragastric 10 mg/kg) | Inhibition rate (%) ([1]; rats, intragastric 30 mg/kg) | Dry weight of thrombus (%) ([1]; rats, intragastric 1 mg/kg) | Dry weight of thrombus (%) ([1]; rats, intragastric 3 mg/kg) | Dry weight of thrombus (%) ([1]; rats, intragastric 10 mg/kg) | Dry weight of thrombus (%) ([1]; rats, intragastric 30 mg/kg) | Drug-related toxicity (appearance, mental activity, appetite, hematological, blood biochemical, ECG) (beagle dogs) | Activities, mental condition and diet (beagle dogs; [5]) | ECG examinations, hematological tests and serum biochemical tests (beagle dogs; [5]) | Activities, mental condition and diet (beagle dogs; [6]) | ECG examinations, hematological tests and serum biochemical tests (beagle dogs; [6]) | Chromatographic purity % ([3]; 0 day, 0point) | Individual maximum impurity % ([3]; 0 day, 0point) | Chromatographic purity % [3, 7] | Individual maximum impurity % [3, 7] | Chromatographic purity % [3, 8] | Individual maximum impurity % [3, 8] | Chromatographic purity % [3, 9] | other results |
| --- | --- | --- | --- | --- | --- | --- | --- | --- | --- | --- | --- | --- | --- | --- | --- | --- | --- | --- | --- | --- | --- |
| C/C=C/C(=O)Oc1cc2c(s1)CCN([C@H](C(=O)OC)c1ccccc1Cl)C2 [Compound I-1, Methyl (S,E)-2-(2-chlorophenyl)-2-(2-(2-butenoyloxy)-6,7-dihydrothieno[3,2-c]pyridin-5(4H)-yl)-acetate] | 18.3% | 43.2% | 56.0% | 64.2% | 8.3 ± 2.7 | 5.8 ± 1.4 | 4.5 ± 2.4 | 3.6 ± 0.5 | no significant drug-related toxicity | normal activities, good mental condition, and normal diet | no obvious abnormalities | normal activities, good mental condition, and normal diet | no obvious abnormalities | 99.612% | 0.236% | 99.598% | 0.242% | 99.565% | 0.243% | 99.555% | ED50 [1]: 7.89 mg/kg; ED200 (dose that doubled the bleeding time) [2]: 1.977 mg/kg; Individual maximum impurity % [3, 9]: 0.242%; Crystalline form ([4]; crystalline form A of I-1, 0 day): Crystalline form A; Crystalline form ([4]; crystalline form A of I-1, 5 days, High humidity (RH 92.5%)): Crystalline form A; Crystalline form ([4]; crystalline form A of I-1, 5 days, High temperature (60° C.)): Crystalline form A; Crystalline form ([4]; crystalline form A of I-1, 5 days, Light (5000 ± 5000 Lx)): Crystalline form A; Crystalline form ([4]; crystalline form A of I-1, 10 days, High humidity (RH 92.5%)): Crystalline form A; Crystalline form ([4]; crystalline form A of I-1, 10 days, High temperature (60° C.)): Crystalline form A; Crystalline form ([4]; crystalline form A of I-1, 10 days, Light (5000 ± 500 Lx)): Crystalline form A; Crystalline form ([4]; crystalline form A of I-1, 30 days, High humidity (RH 92.5%)): Crystalline form A; Crystalline form ([4]; crystalline form A of I-1, 30 days, High temperature (60° C.)): Crystalline form A; Crystalline form ([4]; crystalline form A of I-1, 30 days, Light (5000 ± 500 Lx)): Crystalline form A; Change of the crystalline form by X-ray powder diffraction ([4]; crystalline form A of I-1, high temperature, high humidity and light for 5, 10 and 30 days): has not changed |
| C/C=C/C=C/C(=O)Oc1cc2c(s1)CCN([C@H](C(=O)OC)c1ccccc1Cl)C2 [Compound I-2, Methyl (S)-2-(2-chlorophenyl)-2-(2-((2E,4E)-2,4-hexadienoyloxy)-6,7-dihydrothieno[3,2-c]pyridin-5(4H)-yl)-acetate] | 36.5% | 40.3% | 52.1% | 68.6% | 6.4 ± 3.6 | 6.1 ± 2.9 | 4.9 ± 2.3 | 3.2 ± 1.5 | no significant drug-related toxicity | normal activities, good mental condition, and normal diet | no obvious abnormalities | normal activities, good mental condition, and normal diet | no obvious abnormalities | 98.879% | 0.705% | 98.348% | 0.699% | 98.544% | 0.699% | 98.434% | ED50 ([1]; dry weight of thrombus from arteriovenous bypass, rats, intragastric, read-out: ED50): 5.86 mg/kg; Individual maximum impurity % [3, 9]: 0.696% |
